Patent EP4692095A1, “SALT CRYSTAL FORM OF QUATERNARY FUSED RING COMPOUND, AND PREPARATION METHOD THEREFOR AND USE THEREOF” (Jiangsu Hansoh Pharmaceutical Group Co., Ltd., priority 2023, dated 2024)
Values belong to the compound of their own block, whether it stands above or below them.

Experiments:
Ba/F3 BCR-ABL1-T315I = experiment: Inhibition of proliferation of BaF3 cells overexpressing BCR-ABL1 mutations (CellTiter-Glo); format: cell-based, Mouse; settings: 72 h
From the text: (§1) The test objective was to evaluate the inhibitory activity of the compounds of the present invention against proliferation of the Ba/F3 BCR-ABL1-T315I, Ba/F3 BCR-ABL1-E255K, Ba/F3 BCR-ABL1-E255V, and Ba/F3 BCR-ABL1-G250E mutation models of mouse primary B cells cultured in vitro.
(§2) CellTiter-Glo® Luminescent Cell Viability Assay was used to detect the inhibitory effect of drugs on tumor cell proliferation and growth. The logarithmic growth phase cells cultured overnight were directly taken, pipetted up and down, mixed and counted, the cell density was adjusted according to different cell density requirements, and the cells were prepared into a cell suspension and plated on a 96-well plate. Drugs at different concentrations were added, 3 replicate wells were set for each concentration, and corresponding vehicle controls were set. The maximum test concentration in Ba/F3 BCR-ABL1-T315I and Ba/F3 BCR-ABL1-E255K cells was 10000 nM, with 3.16-fold gradient dilution and a total of 9 concentrations (10000-1.0058 nM). The maximum concentration of the compounds detected in other cells was 500 nM, with 3.16-fold gradient dilution, and a total of 9 concentrations (500-0.0503 nM). The cells with the compound being added were cultured for another 72 h at 37°C and 5% CO2. The culture plate and its contents were equilibrated to room temperature, the CellTiter-Glo® reagent was added, the contents were mixed on a shaker for 5 min to induce cell lysis, the culture plate was further incubated at room temperature in the dark for 20 min, and the luminescence was read with a microplate reader.

Ba/F3 BCR-ABL1-E255K = experiment: as above; format: cell-based, Mouse; settings: 72 h
From the text: as §1, §2

Ba/F3 BCR-ABL1-E255V = experiment: as above; format: cell-based, Mouse; settings: 72 h
From the text: as §1, §2

Ba/F3 BCR-ABL1-G250E = experiment: as above; format: cell-based, Mouse; settings: 72 h
From the text: as §1, §2

[1] = system: human chronic myeloid leukemia cell strain KCL22-s; experiment: Efficacy on subcutaneous xenograft tumor model of KCL22-s; settings: oral, dosing cycle 15 days
ABL1 WT kinase = ABL1 WT kinase (Homo sapiens, UniProt P00519); experiment: In vitro inhibitory activity against ABL1 WT kinase (capillary electrophoresis, substrate peptide phosphorylation); format: biochemical; settings: Maximum concentration 1 µM
Sequence of ABL1 WT kinase (P00519 whole entry): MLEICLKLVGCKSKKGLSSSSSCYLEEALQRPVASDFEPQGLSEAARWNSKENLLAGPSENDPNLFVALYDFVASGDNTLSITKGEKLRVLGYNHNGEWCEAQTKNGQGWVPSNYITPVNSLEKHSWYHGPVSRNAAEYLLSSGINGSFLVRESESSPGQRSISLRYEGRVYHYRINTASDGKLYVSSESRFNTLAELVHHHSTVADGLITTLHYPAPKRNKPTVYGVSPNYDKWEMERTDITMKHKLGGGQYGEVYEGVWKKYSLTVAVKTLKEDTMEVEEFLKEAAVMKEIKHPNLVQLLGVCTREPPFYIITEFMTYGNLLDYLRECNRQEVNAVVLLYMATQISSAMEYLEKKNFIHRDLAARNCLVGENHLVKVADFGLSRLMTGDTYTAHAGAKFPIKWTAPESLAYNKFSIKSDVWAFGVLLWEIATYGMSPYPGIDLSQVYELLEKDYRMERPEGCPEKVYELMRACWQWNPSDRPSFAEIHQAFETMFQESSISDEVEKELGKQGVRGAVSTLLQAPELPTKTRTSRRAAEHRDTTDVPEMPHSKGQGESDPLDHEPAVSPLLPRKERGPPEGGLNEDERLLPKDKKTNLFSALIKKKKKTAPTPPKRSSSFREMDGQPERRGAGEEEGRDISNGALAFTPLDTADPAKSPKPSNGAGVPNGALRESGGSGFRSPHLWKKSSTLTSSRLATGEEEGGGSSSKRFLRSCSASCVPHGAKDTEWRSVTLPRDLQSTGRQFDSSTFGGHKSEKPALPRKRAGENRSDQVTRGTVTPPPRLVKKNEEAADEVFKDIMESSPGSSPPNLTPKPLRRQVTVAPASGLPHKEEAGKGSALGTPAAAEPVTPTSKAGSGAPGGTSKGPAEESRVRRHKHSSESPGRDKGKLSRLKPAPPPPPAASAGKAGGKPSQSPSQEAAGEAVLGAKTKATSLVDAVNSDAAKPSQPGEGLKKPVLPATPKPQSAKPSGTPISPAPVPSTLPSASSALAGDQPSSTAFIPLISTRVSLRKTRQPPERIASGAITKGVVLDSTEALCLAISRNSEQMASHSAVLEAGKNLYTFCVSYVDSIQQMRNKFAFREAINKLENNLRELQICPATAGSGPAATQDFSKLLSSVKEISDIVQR
Procedure: Capillary electrophoresis was used to detect the phosphorylation conversion rate of the substrate peptide to determine the IC50 value of the test compound for inhibiting the kinase (ABL1-WT). The maximum concentration of the compound tested in the test was 1000 nM, with 3-fold dilution, and a total of 12 concentrations (1000 - 0.0056 nM). First, an enzyme reaction system (the concentration of enzyme ABL1-WT was 1.3 nM, the concentration of substrate FLPeptide2 was 1.5 µM, and the reaction factor was 10 mM MgCl2) was prepared. After incubation at room temperature for 30 min, 5 µL of 4×ATP solution was added to start the enzyme reaction. After reacting at room temperature for 90 min, the reaction was stopped by adding a stop buffer (containing 0.5 M EDTA). The sample was analyzed using an EZ reader (analysis conditions: pressure -1.5PSI, upper voltage current -2250V, lower voltage current -500V, separation time 40 sec, system delay 100.0 sec).
From the conversion rate read by EZ Reader, the remaining activity was calculated according to the following formula. Remaining Activity (%) = 100% × (CRSample −CRLC)/(CRHC −CRLC) [formula]
IC50 was calculated using XLfit, and IC50 was calculated by Formula 201 as the fitting formula.

[2] = system: human chronic granulocytic leukemia cells KCL22-s; experiment: Inhibition of proliferation of tumor cell strains carrying BCR-ABL1 fusion mutations (CellTiter-Glo); format: cell-based; settings: KCL22-s (imatinib-sensitive strain), 72 h
From the text: (§3) The test objective was to evaluate the inhibitory activity of the compounds of the present invention against proliferation of human erythroleukemia cells K562, human peripheral blood basophilic leukemia cells Ku812, and human chronic granulocytic leukemia cells KCL22-s and KCL22-r cultured in vitro.
(§4) CellTiter-Glo® Luminescent Cell Viability Assay was used to detect the inhibitory effect of drugs on tumor cell proliferation and growth. The logarithmic growth phase cells cultured overnight were directly taken, pipetted up and down, mixed and counted, the cell density was adjusted according to different cell density requirements, and the cells were prepared into a cell suspension and plated on a 96-well plate. Drugs at different concentrations were added, three replicate wells were set for each concentration, and corresponding solvent controls were set. The maximum concentration of compound detected was 500 nM, with 3-fold gradient dilution, and a total of 9 concentrations (500-0.076 nM). The cells with the compound being added were cultured for another 72 h at 37°C and 5% CO2. The culture plate and its contents were equilibrated to room temperature, the CellTiter-Glo® reagent was added, the contents was mixed on a shaker for 3 min to induce cell lysis, the culture plate was further incubated at room temperature in the dark for 10 min, and the chemiluminescence signal value was determined by a microplate reader (BioTek SynergyH1).

[3] = system: human peripheral blood basophilic leukemia cells Ku812; experiment: as above; format: cell-based; settings: 72 h
From the text: as §3, §4

[4] = system: human chronic granulocytic leukemia cells KCL22-r; experiment: as above; format: cell-based; settings: KCL22-r (imatinib-resistant strain), 72 h
From the text: as §3, §4

[5] = system: human erythroleukemia cells K562; experiment: as above; format: cell-based; settings: 72 h
From the text: as §3, §4

[6] = Pharmacokinetic study in dogs; format: in vivo, beagle dogs
Procedure: (§5) The crystal form A of the p-tosylate of the compound was fully suspended in an aqueous solution of 0.5% HPMC (hydroxypropylmethyl cellulose) K4M, and then administered to beagle dogs by gavage at a dosage of 20 mg/kg and a dose volume of 5 mL/kg, with three dogs in each parallel experiment. The amount of the compound was fully converted into the amount of an equivalent free base.

[7] = Dynamic vapor sorption experiment; format: physicochemical
Procedure: The crystal form A of the p-tosylate of the compound was placed in saturated water vapor with different relative humidities to reach a dynamic equilibrium between the compound and the water vapor, and the percentage of hygroscopic weight gain of the compound after reaching the equilibrium was calculated.

[8] = Thermodynamical stability experiment (polymorph screening by slurrying, XRPD); format: physicochemical; settings: comparison of DSC patterns of crystal forms A-E
[9] = Pharmacokinetic study in rats; format: in vivo; settings: for AUC(0-inf) / Cmax / MRT / Tmax / half-life: in vivo, suspension in 0.5% HPMC K4M
Procedure: as §5, with “rats” for “beagle dogs”, “10” for “20”, “30 mg/kg,” for “a dose volume of 5 mL/kg,”, “rats” for “dogs”

[10] = Thermodynamical stability experiment (polymorph screening by slurrying, XRPD); format: physicochemical
Procedure: An organic solvent with certain solubility was selected, and the crystal form A of the p-tosylate of the compound was suspended in the solvent system. The resulting system was slurried by stirring at room temperature for 2 weeks, and centrifuged. The supernatant was discarded. After the solid was dried under vacuum at 50°C (-0.1 MPa) for 16 h, the XRPD pattern of the solid was measured and compared with the XRPD of the salt of the starting compound.

[11] = dog, in vivo, po, beagle dogs, gavage 20 mg/kg, suspension in 0.5% HPMC K4M

Compound: p-tosylate of (3R)-N-(4-(chlorodifluoromethoxy)phenyl)-2-(difluoromethyl)-3-methyl-3,4,5a,6-tetrahydro-5-oxa-1,2a,6,8-tetraazabenzo[4,5]cyclooctyl[1,2,3-ed]indene-11-carboxamide [Example 1]
IC50 (Ba/F3 BCR-ABL1-T315I): 46.8 nM | IC50 (Ba/F3 BCR-ABL1-E255K): 26.3 nM | IC50 (Ba/F3 BCR-ABL1-E255V): 7.15 nM | IC50 (Ba/F3 BCR-ABL1-G250E): 5.36 nM | T/C ([1]; 1.5 mg/kg bid): 7.05% | TGI ([1]; 1.5 mg/kg bid): 98.20% | Tumor volume ([1]; 1.5 mg/kg bid): 143±35 mm^3 | T/C ([1]; 3 mg/kg bid): 0.69% | TGI ([1]; 3 mg/kg bid): 187.08% | Tumor volume ([1]; 3 mg/kg bid): 14±5 mm^3 | T/C ([1]; 3 mg/kg qd): 3.98% | TGI ([1]; 3 mg/kg qd): 127.26% | Tumor volume ([1]; 3 mg/kg qd): 81±19 mm^3 | T/C ([1]; 7.5 mg/kg bid): 0.52% | TGI ([1]; 7.5 mg/kg bid): 190.62% | Tumor volume ([1]; 7.5 mg/kg bid): 11±7 mm^3 | IC50 (ABL1 WT kinase): 0.43 nM | IC50 [2]: 2.99 nM | IC50 [3]: 4.13 nM | IC50 [4]: 14.6 nM | IC50 [5]: 13 nM

crystal form (XRPD pattern) after hygroscopic-dehygroscopic cycles ([7]; 2 cycles at relative humidity of 0-95%): remained unchanged | hygroscopic weight gain ([7]; at RH 80%): 0.3545% | stability in a humid environment ([7]; conclusion in words): stable in a humid environment | pharmacokinetics in rats (in words) ([9]; gavage, dose of 30 mg/kg): good metabolic properties | Crystal form results ([10]; Initial (before slurrying)): Form A | Crystal form results ([10]; slurried in 2-butanone, room temperature, 2 weeks, XRPD): Form A | Crystal form results ([10]; slurried in 2-methyltetrahydrofuran, room temperature, 2 weeks, XRPD): Form A | Crystal form results ([10]; slurried in 3-pentanone, room temperature, 2 weeks, XRPD): Form A | Crystal form results ([10]; slurried in Acetone, room temperature, 2 weeks, XRPD): Form A | Crystal form results ([10]; slurried in Acetonitrile, room temperature, 2 weeks, XRPD): Form A | Crystal form results ([10]; slurried in Chloroform, room temperature, 2 weeks, XRPD): Form A | Crystal form results ([10]; slurried in Dichloromethane, room temperature, 2 weeks, XRPD): Form A | Crystal form results ([10]; slurried in Ethanol, room temperature, 2 weeks, XRPD): Form A | Crystal form results ([10]; slurried in Ethyl acetate, room temperature, 2 weeks, XRPD): Form A | Crystal form results ([10]; slurried in Ethyl formate, room temperature, 2 weeks, XRPD): Form A | Crystal form results ([10]; slurried in Isopropanol, room temperature, 2 weeks, XRPD): Form A | Crystal form results ([10]; slurried in Isopropyl acetate, room temperature, 2 weeks, XRPD): Form A | Crystal form results ([10]; slurried in Methanol, room temperature, 2 weeks, XRPD): Form A | Crystal form results ([10]; slurried in Tetrahydrofuran, room temperature, 2 weeks, XRPD): Form A | Crystal form results ([10]; slurried in Toluene, room temperature, 2 weeks, XRPD): Form A | Crystal form results ([10]; slurried in n-heptane, room temperature, 2 weeks, XRPD): Form A
Compound: (3R)-N-(4-(chlorodifluoromethoxy)phenyl)-2-(difluoromethyl)-3-methyl-3,4,5a,6-tetrahydro-5-oxa-1,2a,6,8-tetraazabenzo[4,5]cyclooctyl[1,2,3-cd]indene-11-carboxamide [crystal form A of the p-tosylate]
pharmacokinetics in dogs (in words) ([6]; gavage, 20 mg/kg): good metabolic properties, exposure dosage, and significantly improved bioavailability | thermodynamic stability among crystal forms of the p-tosylate [8]: the most thermodynamically stable crystal form among these crystal forms

Compound: C[C@@H]1COC2NC=NC=C2c2cc(C(=O)Nc3ccc(OC(F)(F)Cl)cc3)cc3nc(C(F)F)n1c23 (some centres unmarked) [Crystal form A of p-tosylate]
F ([6]; beagle dogs, gavage 20 mg/kg, suspension in 0.5% HPMC K4M): 68.6% | AUC(0-inf) [6, 11]: 40400 ng·h/mL | Cmax [6, 11]: 5720 ng/mL | MRT [6, 11]: 5.47 h | Tmax [6, 11]: 1.33 h | half-life [6, 11]: 5.58 h | AUC(0-inf) ([9]; Rat PO 10 mg/kg): 2600 ng·h/mL | Cmax ([9]; Rat PO 10 mg/kg): 881 ng/mL | MRT ([9]; Rat PO 10 mg/kg): 2.86 h | Tmax ([9]; Rat PO 10 mg/kg): 1 h | half-life ([9]; Rat PO 10 mg/kg): 3.55 h | AUC(0-inf) ([9]; Rat PO 30 mg/kg): 15600 ng·h/mL | Cmax ([9]; Rat PO 30 mg/kg): 4510 ng/mL | MRT ([9]; Rat PO 30 mg/kg): 2.97 h | Tmax ([9]; Rat PO 30 mg/kg): 1 h | half-life ([9]; Rat PO 30 mg/kg): 2.71 h

Compound: Cc1ccc(NC(=O)c2ccc(CN3CCN(C)CC3)cc2)cc1Nc1nccc(-c2cccnc2)n1 [Imatinib]
T/C ([1]; 75 mg/kg qd): 46.92% | TGI ([1]; 75 mg/kg qd): 56.03%
